From patent US20060040859A1, “Peptides, DNAs, RNAs, and compounds for inhibiting or inducing adrenomedullin activity, and use of the same” (priority 2002, published 2006)
Entries after “also recorded” stand apart in the source; their conditions may differ.

Key:
PCI-43 cells [1] = assay: Intra-tumoral injection of AM or AMA peptide, tumor size of PCI-43 xenograft (Example 2); format: in vivo, mouse; details: 50 μg in 0.1 ml saline into the tumor once a day, 7th to 16th day, observed to 21st day, SCID mice
Protocol: On the dorsal side of a CB17lcr-scid Jl mouse (CLEA JAPAN Inc.), 10^7 PCI-43 cells were subcutaneously transplanted. It was confirmed that PCI-43 cells proliferated to form a tumor, and that the tumor diameter exceeded 5 mm after 7 days. After that confirmation, 50 μg […] each of adrenomedullin and a peptide of the present invention (dissolved in 0.1 ml of physiological saline) was injected into the tumor once a day starting on the 7th day until the 16th day. A peptide consisting of SEQ ID NO: 2 was used as the peptide of the present invention (hereinafter also referred to as an “adrenomedullin antagonist (AMA)”). This peptide was purchased from Wako Pure Chemical Industries, Ltd.
The tumor diameter was megascopically measured every three days. Results are shown in FIG. 2, a graphical representation of tumor sizes when adrenomedullin, adrenomedullin antagonist, and physiological saline (V3), respectively, were administered. The horizontal axis represents the number of days after transplanting PCI-43 cells, and the vertical axis the size of the tumor in volume (mm^3). Arrows at the upper part of the graph indicate timings of administration of adrenomedullin, adrenomedullin antagonist, and physiological saline. Five CB 17lcr-scid Jl mice were used in each group.

PCI-43 cells [2] = assay: Intra-tumoral injection of AM or AMA peptide, extirpated PCI-43 tumor size and weight (Example 3); format: in vivo, mouse
Protocol: On the dorsal side of CB17lcr-scid Jl mice (CLEA JAPAN Inc.), 10^7 PCI-43 cells were subcutaneously transplanted. It was confirmed that PCI-43 cells proliferated to form a tumor, and that the tumor diameter exceeded 5 mm after 7 days. After that confirmation, 50 μg each […] of adrenomedullin and adrenomedullin antagonist (dissolved in 0.1 ml of physiological saline) was injected into the tumor once every three days from the 7th day, that is, on the 7th, 10th, 13th, and 16th days. Adrenomedullin and adrenomedullin antagonist used herein were the same as those used in Example 1.
Mice were sacrificed on the 21st day, and tumors were extirpated and weighed.

[3] = system: newly generated blood vessels; assay: Anti-CD31 staining and diameters of newly generated blood vessels in tumor tissue (Example 4); format: in vivo, mouse; details: for Average ± standard deviation of blood vessel diameters: 100 newly generated blood vessels; for Number of blood vessels 2 μm to less than 8 μm / Number of blood vessels 8 μm or more / Number of blood vessels less than 2 μm: of 100 arbitrarily selected newly generated blood vessels, by diameter; for newly generated blood vessels by anti-CD31 staining: tumor tissue of Example 3 mice, FIG. 5
Protocol: The effect of a peptide of the present invention on angiogenesis was examined. Experiments were carried out with the tumor tissues of mice used in Example 3. Mouse tumor tissues were extirpated, and CD31 antigen, which is the cell surface marker specific for vascular endothelial cells, was stained with anti-CD31 antibody. Staining was performed as described below. The experiments were carried out using five mice.
Tumor tissues were frozen in liquid nitrogen to prepare frozen sections. After the frozen sections were pre-treated in albumin solution for 30 min, endogenous peroxidase activity was suppressed with hydrogen peroxide, and then, the sections were treated with anti-CD31 antibody for 1 h at room temperature. After washing, the sections were treated with a secondary antibody for 1 h, and coloured using […].
Next, 100 newly generated blood vessels of the vascular endothelial cells used in Example 4 were arbitrarily selected to measure their respective diameters. In Table 1, results of the number of the newly generated blood vessels classified by their diameters into three groups (less than 2 μm, 2 μm to less than 8 μm, and 8 μm or more) are shown together with the average of blood vessel diameters and standard deviations. In Table 1, AM stands for adrenomedullin, and AMA adrenomedullin antagonist.

[4] = system: proliferating cell nuclear antigen (PCNA) of tumor cells; assay: Anti-PCNA staining of tumor cells (Example 5); format: in vivo, mouse; details: for cells reacting with the anti-PCNA antibody: FIG. 6; for PCNA-labelling index: tumor cells of treated mice
Text: The effect of a peptide of the present invention on cell proliferation was examined. The proliferating cell nuclear antigen (PCNA) of tumor cells from the mice used in Example 2 was stained with anti-PCNA antibody. The staining method was the same as in Example 4. Five mice were used in the experiment. The staining results for tumor cells of an adrenomedullin-administered mouse are shown on the left side in FIG. 6, while those of an adrenomedullin antagonist-administered mouse are shown on the right side.

HUVEC cells [5] = assay: MTS assay, AMA with AM on endothelial cells under hypoxic and nutrient-deprived conditions (Example 7C); format: cell-based; details: AM 10^-6 M, AMA 0 to 10^-6 M, VEGF and FGF 10 ng/ml, 48 h
Protocol: (§1) The effect of both AM and AMA together on the growth and apoptosis of endothelial cells under extreme conditions (hypoxic and nutrient-deprived) and in the presence of growth factors is examined herein. As in Example 1 above, hypoxic conditions comprised culture in 1% O2 concentration for 12 h using a hypoxic culture chamber (Wakenyaku Industry) and nutrient-deprived conditions involved addition of only 13 mg/dl glucose.
(§2) Five×10^3 cells (2×10^4 in some experiments) were plated in wells of 96-well plates. Human adrenomedullin (AM) (SEQ ID NO: 1) was added at a concentration of 10^−6 M and a human adrenomedullin antagonist peptide (AMA) (SEQ ID NO: 2) was added at indicated concentrations, ranging from 0 to 10^−6 M. VEGF and FGF were added at 10 ng/ml. The cells were incubated for 48 h and the viable cell numbers were determined by the MTS assay according to the manufacturer's instructions as described above in Example 7A.

cancer cells = assay: In vitro growth of cancer cells with AMA; format: cell-based
HUVEC cells [6] = assay: MTS assay, endothelial cells under hypoxic and nutrient-deprived conditions with VEGF and FGF (Example 7B); format: cell-based; details: hypoxic and glucose-deprived, AM 0 to 10^-6 M, VEGF and FGF 10 ng/ml, 48 h
Protocol: as §1, with “of” for “of both”, “AM” for “AM and AMA together”
as §2, with “1)” for “1) was added at a concentration of 10^−6 M and a human adrenomedullin antagonist peptide (AMA) (SEQ ID NO: 2)”

HUVEC cells [7] = assay: MTS assay, endothelial cell growth under normoxic, normal glucose conditions (Example 7A); format: cell-based; details: AM 0 to 10^-6 M, 48 h, normoxic and nutrient-supplied
Protocol: The effect of AM on the growth of endothelial cells under normal conditions (normoxia, normal glucose) is examined herein. As in Example I above, normoxic conditions comprised culture in 20% O2 concentration and normal glucose conditions involved addition of 100 mg/dl of glucose or higher.
Five×10^3 cells (2×10^4 in some experiments) were plated in wells of 96-well plates. Human adrenomedullin (AM) (SEQ ID NO: 1) was added at indicated concentrations, ranging from 0 to 10^−6 M. The cells were incubated for 48 h and the viable cell numbers were determined by MTS assay according to the manufacturer's instructions. Cell viability can be reflected by the integrity of the mitochondria. When the MTS reagent (a tetrazolium salt) is applied to living cells, it is converted to a color compound (formazan) […] at 490 nm. Accordingly, the MTS assay may be used to assay cell viability and to count viable cells.

Rat-2 cells = assay: Intracellular cAMP in Rat-2 cells; format: cell-based; details: in the absence of CGRP binding
Text: (§3) In order to skip this problem, cell lines expressing endogenous adrenomedullin binding. Three cell lines to date are available. L6 cells are a rat myoblast cell line known to express CGRP1 receptors, Swiss 3T3 cells are a mouse fibroblast cell line, and Rat-2 cells are rat fibroblasts. […] L6 cells express CRLR and RAMPs 1 and 2. In Swiss 3T3 cells the effects of adrenomedullin were mediated via specific adrenomedullin receptors. […] These cells are useful in establishing the screening system to inhibit functionally the intracellular signal transduction after a receptor engagement by adrenomedullin.

[8] = system: Mitogen-activated protein kinases (MAPKS); assay: MAPK activity in Rat-2 cells; format: cell-based
Text: as §3

U87 glioblastoma cells = details: exogenously added; cited from earlier work

Substance | Average ± standard deviation of blood vessel diameters [3] | Number of blood vessels 2 μm to less than 8 μm [3] | Number of blood vessels 8 μm or more [3] | Number of blood vessels less than 2 μm [3] | newly generated blood vessels by anti-CD31 staining [3] | cells reacting with the anti-PCNA antibody [4] | PCNA-labelling index [4] | apoptosis of endothelial cells (viable cells, O.D.) (HUVEC cells [6]) | also measured
AMA: 31 amino acid truncated human adrenomedullin lacking the first 21 N-terminal amino acids (SEQ ID NO: 2), purchased from Wako | 2.276 ± 1.120 μm | 44 | 1 | 55 | newly generated blood vessels were thin | few cells reacted with the anti-PCNA antibody | 6.3±5.2 |  | tumor size (volume) (PCI-43 cells [1]; listed as adrenomedullin antagonist): became almost megascopically invisible; also recorded: reduction in tumor volume; tumor weight relative to adrenomedullin-administered group (PCI-43 cells [2]; 21st day): about half; size of the extirpated tumor compared to adrenomedullin-administered group (PCI-43 cells [2]; 21st day, photograph FIG. 3, listed as adrenomedullin antagonist): became smaller; also recorded: noticeably smaller; blood vessel diameters relative to adrenomedullin-administered mice ([3]; mouse, in vivo): one half; proliferating cells compared to adrenomedullin-administered mice ([4]; mouse, in vivo): decreased by about one quarter; apoptosis of endothelial cells (viable cells, O.D.) (HUVEC cells [5]): induced apoptosis of the endothelial cells in a dose dependent manner; growth inhibitory effect on cancer cells in vitro (cancer cells): did not exhibit any growth inhibitory effect
VEGF |  |  |  |  |  |  |  | underwent apoptosis | 
adrenomedullin (YRQSMNNFQGLRSFGCRFGTCTVQKLAHQIYQFTDKDKDNVAPRSKISPQGY; listed as Homo sapiens) [AM, reference compound] | 6.454 ± 5.313 μm | 54 | 31 | 15 | thick blood vessels were newly generated | many cells reacting with the anti-PCNA antibody were present | 25.8±3.9 | protected the endothelial cells from apoptosis | tumor size (volume) (PCI-43 cells [1]): the tumor size hardly changed; tumor weight (PCI-43 cells [2]; 50 μg into the tumor on 7th, 10th, 13th, 16th days, tumors extirpated on 21st day): about 0.05 g; growth of endothelial cells (viable cells, O.D.) (HUVEC cells [7]): no significant effect; intracellular cAMP (Rat-2 cells): dose-dependent stimulation of intracellular cAMP; PDGF-stimulated and basal MAPK activity [8]: potently and dose-dependently inhibited; growth of glioblastoma cells in vitro (U87 glioblastoma cells): can stimulate the growth
